Measurements taken from patent publication US9545105B2, “1-(heterocyclic carbonyl) piperidines” (BAYER INTELLECTUAL PROPERTY GMBH, priority 2010, dated 2017).

Test system: Pyrenophora teres
Assay: In vivo preventive test on Pyrenophora teres (barley)
Conditions: 500 ppm of active ingredient, evaluated 7-9 days after inoculation
Procedure: Solvent: 49 parts by weight of N,N-dimethylformamide Emulsifier: 1 part by weight of alkylaryl polyglycol ether To produce a suitable preparation of active compound, 1 part by weight of active compound is mixed with the stated amounts of solvent and emulsifier, and the concentrate is diluted with water to the desired concentration. To test for preventive activity, young plants are sprayed with the preparation of active compound at the stated rate of application. One day after this treatment, the plants are inoculated with an aqueous spore suspension of Pyrenophora teres. The plants remain for 48 hours in an incubation cabinet at 22° C. and a relative atmospheric humidity of 100%. Then the plants are placed in a greenhouse at a temperature of approximately 20° C. and a relative atmospheric humidity of approximately 80%. The test is evaluated 7-9 days after the inoculation. 0% means an efficacy which corresponds to that of the untreated control while an efficacy of 100% means that no disease is observed.

SMILES	Efficacy [%]
Cn1nc(C(F)F)c(C(=S)N2CCCCC2CCc2ccccc2)c1F (stereo not drawn) [Example 179]	100
CCc1nn(C)c(F)c1C(=O)N1CCCCC1c1ccc2c(c1)OCO2 (stereo not drawn) [Example 59]	70
Cn1nc(C(F)F)c(C(=O)N2CCCCC2CCOc2ccc(F)cc2F)c1F (stereo not drawn) [Example 182]	100
Cn1nc(C(F)F)c(C(=O)N2CCCCC2c2ccc3ccccc3c2)c1Cl (stereo not drawn) [Example 121]	90
CC(c1ccccc1)C1CCCCN1C(=O)c1c(C(F)F)nn(C)c1Cl (stereo not drawn) [Example 137]	100
Cn1nc(C(F)F)c(C(=O)N2CCCCC2c2cccc(Oc3ccccc3)c2)c1Cl (stereo not drawn) [Example 114]	80
Cn1nc(C(F)F)c(C(=O)N2CCCCC2COc2ccc3ccccc3c2)c1Cl (stereo not drawn) [Example 172]	90
Cn1nc(C(F)F)c(C(=O)N2CCCCC2c2ccc(Br)cc2)c1Cl (stereo not drawn) [Example 103]	95
Cn1nc(C(F)F)c(C(=O)N2CCCCC2c2ccccc2Br)c1Cl (stereo not drawn) [Example 90]	95
Cc1nn(C)c(F)c1C(=O)N1CCCCC1c1ccc(Br)cc1 (stereo not drawn) [Example 99]	100
Cn1nc(C(F)F)c(C(=O)N2CCCCC2CCOc2ccc3ccccc3c2)c1F (stereo not drawn) [Example 191]	100
CCc1nn(C)c(F)c1C(=O)N1CCCCC1c1ccc(Br)s1 (stereo not drawn) [Example 125]	80
CCc1nn(C)c(F)c1C(=O)N1CCCCC1c1cccc(Br)c1 (stereo not drawn) [Example 94]	70
Cn1nc(C(F)F)c(C(=O)N2CCCCC2CCOc2ccccc2-c2ccccc2)c1Cl (stereo not drawn) [Example 186]	95
Cn1nc(C(F)F)c(C(=O)N2CCCCC2c2cccc(Cl)c2)c1Cl (stereo not drawn) [Example 47]	100
Cn1nc(C(F)F)c(C(=O)N2CCCCC2CCc2ccccc2)c1F (stereo not drawn) [Example 177]	95
Cn1nc(C(F)F)c(C(=O)N2CCCCC2c2ccccc2Cl)c1Cl (stereo not drawn) [Example 40]	95
Cc1cc(C(=O)N2CCCCC2c2cccc(Cl)c2Cl)c(C)o1 (stereo not drawn) [Example 71]	80
Cn1nc(C(F)F)c(C(=O)N2CCCCC2Cc2cccc(F)c2)c1F (stereo not drawn) [Example 153]	100
Cn1nc(C(F)F)c(C(=O)N2CCCCC2CCOc2ccccc2-c2ccccc2)c1F (stereo not drawn) [Example 187]	95
Cn1nc(C(F)F)c(C(=O)N2CCCCC2Cc2ccccc2)c1F (stereo not drawn) [Example 134]	100

Test system: not listed separately
Assay: log P by HPLC on reversed-phase column (C 18), EEC Directive 79/831 Annex V.A8
Assay type: physicochemical
Conditions: HPLC on reversed-phase column (C 18); 40° C.; 0.1% aqueous formic acid and acetonitrile; linear gradient 10% to 90% acetonitrile
Procedure: In table 1, the log P values were determined in accordance with EEC Directive 79/831 Annex V.A8 by HPLC (High Performance Liquid Chromatography) on a reversed-phase column (C 18), using the method described below: Temperature: 40° C.; Mobile phases: 0.1% aqueous formic acid and acetonitrile; linear gradient from 10% acetonitrile to 90% acetonitrile. Calibration was carried out using unbranched alkan-2-ones (comprising 3 to 16 carbon atoms) with known log P values (determination of the log P values by the retention times using linear interpolation between two successive alkanones). lambda-max-values were determined using UV-spectra from 200 nm to 400 nm and the peak values of the chromatographic signals.

SMILES	logP
Cn1nc(C(F)F)c(C(=S)N2CCCCC2CCc2ccccc2)c1F (stereo not drawn) [Example 179]	4.06
CCc1nn(C)c(F)c1C(=O)N1CCCCC1c1ccc2c(c1)OCO2 (stereo not drawn) [Example 59]	2.73
Cn1nc(C(F)F)c(C(=O)N2CCCCC2CCOc2ccc(F)cc2F)c1F (stereo not drawn) [Example 182]	3.29
Cc1nn(C)c(F)c1C(=O)N1CCCCC1c1ccc(Br)cc1 (stereo not drawn) [Example 99]	3.11
Cn1nc(C(F)F)c(C(=O)N2CCCCC2CCOc2ccc3ccccc3c2)c1F (stereo not drawn) [Example 191]	3.92
CCc1nn(C)c(F)c1C(=O)N1CCCCC1c1ccc(Br)s1 (stereo not drawn) [Example 125]	3.51
CCc1nn(C)c(F)c1C(=O)N1CCCCC1c1cccc(Br)c1 (stereo not drawn) [Example 94]	3.44
Cn1nc(C(F)F)c(C(=O)N2CCCCC2CCOc2ccccc2-c2ccccc2)c1Cl (stereo not drawn) [Example 186]	4.39
Cc1cc(C(=O)N2CCCCC2c2cccc(Cl)c2Cl)c(C)o1 (stereo not drawn) [Example 71]	4.29
Cn1nc(C(F)F)c(C(=O)N2CCCCC2Cc2cccc(F)c2)c1F (stereo not drawn) [Example 153]	3.13
Cn1nc(C(F)F)c(C(=O)N2CCCCC2CCOc2ccccc2-c2ccccc2)c1F (stereo not drawn) [Example 187]	4.21

Next, values leading:

logP	SMILES
3.87	Cn1nc(C(F)F)c(C(=O)N2CCCCC2c2ccc3ccccc3c2)c1Cl (stereo not drawn) [Example 121]
3.59	CC(c1ccccc1)C1CCCCN1C(=O)c1c(C(F)F)nn(C)c1Cl (stereo not drawn) [Example 137]
4.18	Cn1nc(C(F)F)c(C(=O)N2CCCCC2c2cccc(Oc3ccccc3)c2)c1Cl (stereo not drawn) [Example 114]
3.87	Cn1nc(C(F)F)c(C(=O)N2CCCCC2COc2ccc3ccccc3c2)c1Cl (stereo not drawn) [Example 172]
3.78	Cn1nc(C(F)F)c(C(=O)N2CCCCC2c2ccc(Br)cc2)c1Cl (stereo not drawn) [Example 103]
3.55	Cn1nc(C(F)F)c(C(=O)N2CCCCC2c2ccccc2Br)c1Cl (stereo not drawn) [Example 90]
3.60	Cn1nc(C(F)F)c(C(=O)N2CCCCC2c2cccc(Cl)c2)c1Cl (stereo not drawn) [Example 47]
3.37	Cn1nc(C(F)F)c(C(=O)N2CCCCC2CCc2ccccc2)c1F (stereo not drawn) [Example 177]
3.48	Cn1nc(C(F)F)c(C(=O)N2CCCCC2c2ccccc2Cl)c1Cl (stereo not drawn) [Example 40]
3.09	Cn1nc(C(F)F)c(C(=O)N2CCCCC2Cc2ccccc2)c1F (stereo not drawn) [Example 134]

Test system: Alternaria solani
Assay: In vivo preventive test on Alternaria solani (tomato)
Conditions: 500 ppm of active ingredient, evaluated 7 days after inoculation
Procedure: Solvent: 49 parts by weight of N,N-dimethylformamide Emulsifier: 1 part by weight of Alkylarylpolyglycolether To produce a suitable preparation of active compound, 1 part by weight of active compound is mixed with the stated amounts of solvent and emulsifier, and the concentrate is diluted with water to the desired concentration. To test for preventive activity, young plants are sprayed with the preparation of active compound at the stated rate of application. One day after this treatment, the plants are inoculated with an aqueous spore suspension of Alternaria solani. The plants remain for one day in an incubation cabinet at approximately 22° C. and a relative atmospheric humidity of 100%. Then the plants are placed in an incubation cabinet at approximately 20° C. and a relative atmospheric humidity of 96%. The test is evaluated 7 days after the inoculation. 0% means an efficacy which corresponds to that of the untreated control while an efficacy of 100% means that no disease is observed.

SMILES	Efficacy [%]
Cn1nc(C(F)F)c(C(=S)N2CCCCC2CCc2ccccc2)c1F (stereo not drawn) [Example 179]	95
CCc1nn(C)c(F)c1C(=O)N1CCCCC1c1ccc2c(c1)OCO2 (stereo not drawn) [Example 59]	78
Cn1nc(C(F)F)c(C(=O)N2CCCCC2CCOc2ccc(F)cc2F)c1F (stereo not drawn) [Example 182]	100
Cn1nc(C(F)F)c(C(=O)N2CCCCC2c2ccc3ccccc3c2)c1Cl (stereo not drawn) [Example 121]	80
CC(c1ccccc1)C1CCCCN1C(=O)c1c(C(F)F)nn(C)c1Cl (stereo not drawn) [Example 137]	100
Cn1nc(C(F)F)c(C(=O)N2CCCCC2c2cccc(Oc3ccccc3)c2)c1Cl (stereo not drawn) [Example 114]	90
Cn1nc(C(F)F)c(C(=O)N2CCCCC2COc2ccc3ccccc3c2)c1Cl (stereo not drawn) [Example 172]	80
Cn1nc(C(F)F)c(C(=O)N2CCCCC2c2ccc(Br)cc2)c1Cl (stereo not drawn) [Example 103]	80
Cn1nc(C(F)F)c(C(=O)N2CCCCC2c2ccccc2Br)c1Cl (stereo not drawn) [Example 90]	90
Cc1nn(C)c(F)c1C(=O)N1CCCCC1c1ccc(Br)cc1 (stereo not drawn) [Example 99]	90
Cn1nc(C(F)F)c(C(=O)N2CCCCC2CCOc2ccc3ccccc3c2)c1F (stereo not drawn) [Example 191]	100
CCc1nn(C)c(F)c1C(=O)N1CCCCC1c1ccc(Br)s1 (stereo not drawn) [Example 125]	90
CCc1nn(C)c(F)c1C(=O)N1CCCCC1c1cccc(Br)c1 (stereo not drawn) [Example 94]	100
Cn1nc(C(F)F)c(C(=O)N2CCCCC2CCOc2ccccc2-c2ccccc2)c1Cl (stereo not drawn) [Example 186]	80
Cn1nc(C(F)F)c(C(=O)N2CCCCC2c2cccc(Cl)c2)c1Cl (stereo not drawn) [Example 47]	100
Cn1nc(C(F)F)c(C(=O)N2CCCCC2CCc2ccccc2)c1F (stereo not drawn) [Example 177]	100
Cn1nc(C(F)F)c(C(=O)N2CCCCC2c2ccccc2Cl)c1Cl (stereo not drawn) [Example 40]	95
Cc1cc(C(=O)N2CCCCC2c2cccc(Cl)c2Cl)c(C)o1 (stereo not drawn) [Example 71]	80
Cn1nc(C(F)F)c(C(=O)N2CCCCC2Cc2cccc(F)c2)c1F (stereo not drawn) [Example 153]	100
Cn1nc(C(F)F)c(C(=O)N2CCCCC2CCOc2ccccc2-c2ccccc2)c1F (stereo not drawn) [Example 187]	95
Cn1nc(C(F)F)c(C(=O)N2CCCCC2Cc2ccccc2)c1F (stereo not drawn) [Example 134]	100
